The NIST ThermoML archive (doi:10.1016/j.jct.2006.10.009)
Numbers after ± are expanded uncertainties.

Assay: not given
Details: Crystal; DTA

Structure (SMILES)	Normal melting temperature [°C]
CCCCCCCCCC[N+](C)(C)CCCCCCCCCC.O=[N+]([O-])[O-] [Didecyldimethylammonium nitrate]	31.7 ± 4

Same assay, conditions: Crystal; visual observation

Structure (SMILES)	Normal melting temperature [°C]
CCCCO [butan-1-ol]	-89.4 ± 4
CCCCCCCCCCO [decan-1-ol]	5.1 ± 4
CCCCCCCCCCCCCCCC [hexadecane]	18.0 ± 4
CCCCCC [hexane]	-94.3 ± 4
CCCCCCCCO [octan-1-ol]	-14.9 ± 4
CCCO [propan-1-ol]	-126.4 ± 4
CCCc1ccccc1 [propylbenzene]	-99.0 ± 4
Cc1ccccc1 [toluene]	-95.0 ± 4

Assay: Molar enthalpy of transition or fusion
Details: Crystal; DSC

Structure (SMILES)	Molar enthalpy of transition or fusion [kcal/mol]
CCCCCCCCCC[N+](C)(C)CCCCCCCCCC.O=[N+]([O-])[O-] [Didecyldimethylammonium nitrate]	2.36 ± 0.086
